According to patent US20260345619A1 (Principia Biopharma Inc., priority 2023, published 2026):

Assay: Loss of asthma control (LOAC) events, 12-week ICS/LABA withdrawal study
Format: in vivo, human
Conditions: for RD vs. Placebo / LOAC, number / OR vs. placebo: 400 mg BID
Description: The general construct of this 12-week Loss of Asthma Control (LOAC) study consisted of a 4-week standardized ICS/LABA background therapy stabilization phase, a 4or 5-week background therapy withdrawal phase and a 3- or 4-week no background therapy phase, followed by a 4-week post IMP treatment safety follow-up period at the beginning of which, pre-screening asthma controller medications are restarted. Participants had access to short-acting β-agonist (SABA) reliever medication at all times during the protocol.
The primary endpoint was the proportion of patients with LOAC. The key secondary endpoint for the study was change in pre-bronchodilator FEV1 from baseline at EOT.
The primary endpoint was proportion of participants with LOAC during the 12-week treatment period.
Note that if the number of participants in some regions was too low, these regions may have been pooled with other regions. This strategy also applied to all the rest of the analyses where region was one of the covariates.
To assess the consistency in treatment effects across different subgroup levels, subgroup analyses were to be performed for the primary efficacy endpoint with respect to age group, gender, region, and other factors.
Secondary endpoints included pre-bronchodilator FEV1 change from baseline at EOT, ACQ-5 score change from baseline, and AQLQ score change from baseline. Other secondary and exploratory endpoints are described in Table 2.

[1] = all others than low EOS and low FeNO
[2] = background ICS/LABA dose Medium
[3] = baseline IgA <Median (2600) IU/mL
[4] = baseline IgA ≥Median (2600) IU/mL
[5] = baseline IgE <Median (210.8) IU/mL
[6] = baseline IgE ≥Median (210.8) IU/mL
[7] = baseline percent predicted FEV1 <Median (68)
[8] = baseline percent predicted FEV1 ≥ Median (68)
[9] = baseline pre-BD FEV1 <Median (2.022) L
[10] = baseline pre-BD FEV1 ≥Median (2.022) L
[11] = blood eosinophil level 1 <0.15 (10^9/L)
[12] = blood eosinophil level 1 ≥0.15 (10^9/L)
[13] = blood eosinophil level 2 <0.3 (10^9/L)
[14] = blood eosinophil level 2 ≥0.3 (10^9/L)
[15] = 400 mg TID cohort, Eastern Europe, n = 43
[16] = 400 mg TID cohort, Latin America, n = 19

## CC(C)(C=C(C#N)C(=O)N1CCC[C@@H](n2nc(-c3ccc(Oc4ccccc4)cc3F)c3c(N)ncnc32)C1)N1CCN(C2COC2)CC1 (mixture of isomers) [rilzabrutinib, (R)-2-[3-[4-amino-3-(2-fluoro-4-phenoxy-phenyl)pyrazolo[3,4-d]pyrimidin-1-yl]piperidine-1-carbonyl]-4-methyl-4-[4-(oxetan-3-yl)piperazin-1-yl]pent-2-enenitrile]
Age at onset ≥18-<40 years
  RD vs. Placebo: −0.314
Age at onset ≥18 years
  LOAC, number: 7
  OR vs. placebo: 0.323
  RD vs. Placebo: −0.258
Age at onset ≥40 years
  LOAC, number: 3
  OR vs. placebo: 3.000
  RD vs. Placebo: 0.250
[1]
  LOAC, number: 12
  OR vs. placebo: 0.808
  RD vs. Placebo: −0.053
Atopic medical conditions: No
  LOAC, number: 4
  OR vs. placebo: 0.380
  RD vs. Placebo: −0.204
Atopic medical conditions: Yes
  LOAC, number: 8
  OR vs. placebo: 0.681
  RD vs. Placebo: −0.069
Background ICS/LABA dose High
  LOAC, number: 11
  OR vs. placebo: 0.737
  RD vs. Placebo: −0.075
[2]
  LOAC, number: 1
  RD vs. Placebo: −0.467
Baseline ACQ-5 >2
  OR vs. placebo: 0.475
Baseline ACQ-5 ≤2
  LOAC, number: 7
  OR vs. placebo: 0.651
  RD vs. Placebo: −0.098
Baseline FeNO level 1 <25 ppb
  LOAC, number: 3
  OR vs. placebo: 0.261
  RD vs. Placebo: −0.227
Baseline FeNO level 1 ≥25 ppb
  LOAC, number: 9
  OR vs. placebo: 0.946
  RD vs. Placebo: −0.007
Baseline FeNO level 2 <35 ppb
  LOAC, number: 8
  OR vs. placebo: 0.448
  RD vs. Placebo: −0.198
Baseline FeNO level 2 ≥35 ppb
  LOAC, number: 4
  OR vs. placebo: 0.800
  RD vs. Placebo: −0.053
[3]
  LOAC, number: 4
  OR vs. placebo: 0.205
  RD vs. Placebo: −0.365
[4]
  LOAC, number: 8
  OR vs. placebo: 1.633
  RD vs. Placebo: 0.122
Baseline IgE <100 IU/mL
  LOAC, number: 2
  OR vs. placebo: 0.412
  RD vs. Placebo: −0.220
[5]
  LOAC, number: 6
  OR vs. placebo: 0.744
  RD vs. Placebo: −0.053
Baseline IgE ≥100 IU/mL
  LOAC, number: 10
  OR vs. placebo: 0.652
  RD vs. Placebo: −0.092
[6]
  LOAC, number: 6
  OR vs. placebo: 0.604
  RD vs. Placebo: −0.124
[7]
  LOAC, number: 7
  OR vs. placebo: 0.700
  RD vs. Placebo: −0.088
[8]
  OR vs. placebo: 0.556
  RD vs. Placebo: −0.143
[9]
  LOAC, number: 7
  OR vs. placebo: 0.700
  RD vs. Placebo: −0.088
[10]
  OR vs. placebo: 0.556
  RD vs. Placebo: −0.143
[11]
  LOAC, number: 2
  OR vs. placebo: 0.527
  RD vs. Placebo: −0.135
[12]
  LOAC, number: 10
  OR vs. placebo: 0.737
  RD vs. Placebo: −0.077
[13]
  OR vs. placebo: 0.231
  RD vs. Placebo: −0.197
[14]
  LOAC, number: 7
  OR vs. placebo: 0.951
  RD vs. Placebo: −0.013
Low EOS (<0.15) and low FeNO (<25)
  LOAC, number: 0
Smoking history Former
  LOAC, number: 3
  OR vs. placebo: 3.000
  RD vs. Placebo: 0.250
Smoking history Never
  LOAC, number: 9
  OR vs. placebo: 0.474
  RD vs. Placebo: −0.179
[15]
  LOAC incidence, number of participants: 8
  LOAC incidence, percentage: (18.6)
400 mg TID cohort, Eastern Europe, 95% CI (0.187, 1.368)
  LOAC OR vs. placebo: 0.506
[16]
  LOAC incidence, number of participants: 4
  LOAC incidence, percentage: (21.1)
400 mg TID cohort, Latin America, 95% CI (0.166, 3.357)
  LOAC OR vs. placebo: 0.747
400 mg TID cohort, Latin America, 95% CI (−0.322, 0.217)
  LOAC RD vs. placebo: −0.053
